Results taken from patent publication US8101594B2, “Method for improving pancreatic functions” (Morinaga Milk Industry Co., Ltd., priority 2005, dated 2012).

How the values were obtained:
db/db mice [1] = experiment: Serum insulin level (insulin production ability protecting action) in db/db mice after 42 days of oral administration; type: in vivo; conditions: for Serum insulin levels on 43rd day of administration: male db/db mice, ELISA, negative sample 1.99 ± 0.66; for Pancreatic function (insulin production ability) protecting effect: 0.1 μg/animal; for Pancreatic function (insulin production ability) protecting effect / Serum insulin level as % of that observed in the negative test: 43rd day of continuous administration, db/db mice; for Serum insulin level as % of that observed in the negative test: 1 μg/animal
Experimental: In this test, the endocrine gland cell functions (insulin production ability) protecting action of compounds having a lophenol skeleton was evaluated by using db/db mice known as a model animal of pancreatic hypofunction or pancreatic tissue dysfunction.
4-methyl-cholest-7-en-3-ol produced in Preparation Example mentioned above was used as test sample 1, 4-methyl-ergost-7-en-3-ol was used as test sample 2, and 4-methyl-stigmast-7-en-3-ol was used as test samples 3.
In this test, 6-week old male db/db mice (purchased from Clea Japan, Inc.) were used. These mice were divided into groups, each consisting of 7 animals. Each test sample was dissolved in DMSO, and the concentration was adjusted to 0.1 or 1 μg/mL with physiological saline. The final DMSO concentration was adjusted to 0.2%. The pancreas dysfunction model mice were orally administered with 1 mL of the test sample once a day everyday for 42 days with a sonde. The serum insulin level was measured on the 43rd day of the continuous administration by using Lbis insulin mouse ELISA kit (Shibayagi Co., Ltd).

db/db mice [2] = experiment: Pancreatic tissue protecting action: number and maximum area of Langerhans islets in pancreatic sections of db/db mice; type: in vivo; conditions: for Maximum area of Langerhans islets on administration × 10^3 / The numbers of Langerhans islets in sections on 43rd day of administration: 1 μg/animal orally once a day for 42 days; for Maximum area of Langerhans islets on administration × 10^3: negative sample 44.5 ± 17.7; for The numbers of Langerhans islets in sections on 43rd day of administration: pancreatic sections of 3 positions, HE staining, negative sample 40.3 ± 9.7; for Action of protecting pancreatic tissues, especially endocrine cells: 42 days oral
Source text: In this test, the pancreatic tissue protecting action of compounds having a lophenol skeleton was examined by using db/db mice known as a model animal of pancreatic hypofunction or pancreatic tissue dysfunction.
4-methyl-cholest-7-en-3-ol produced in Preparation Example mentioned above was used as test sample 1, 4-methyl-ergost-7-en-3-ol was used as test sample 2, 4-methyl-stigmast-7-en-3-ol was used as test samples 3. Further, β-sitosterol (Tama Biochemical Co., Ltd.) was used as a control sample.
In this test, 6-week old male db/db mice (purchased from Clea Japan, Inc.) were used. These mice were divided into groups, each consisting of 7 animals. Each test sample was dissolved in DMSO, and the concentration was adjusted to 1 μg/mL with physiological saline. The final DMSO concentration was adjusted to 0.2%. The model mice were orally administered with 1 mL of the test sample once a day everyday for 42 days with a sonde. On the 43rd day of the continuous administration, the pancreas was extracted, divided into three portions of upstream, midstream and downstream from the duodenum side, and fixed with a formalin solution, and then paraffin blocks were prepared in a conventional manner. Section slides were prepared from the paraffin blocks, and subjected to hematoxylin-eosin staining. The numbers of Langerhans islets existing on the sections of the 3 position of the pancreas, and area of Langerhans islet having the maximum area on each section were measured by using an ocular micrometer on a microscope (“ECLIPSE E600”, NIKON CORP.).

[3] = 0.1 μg/animal orally once a day for 42 days
[4] = 1 μg/animal orally once a day for 42 days

Row | SMILES | Serum insulin levels on 43rd day of administration (db/db mice [1]; [3]) [ng/mL] | Pancreatic function (insulin production ability) protecting effect (db/db mice [1]) | Serum insulin levels on 43rd day of administration (db/db mice [1]; [4]) [ng/mL] | Serum insulin level as % of that observed in the negative test (db/db mice [1]) [%] | Maximum area of Langerhans islets on administration × 10^3 (db/db mice [2]; 43rd day) | The numbers of Langerhans islets in sections on 43rd day of administration (db/db mice [2]) [piece] | Maximum area of Langerhans islets, times as large as that observed in the negative test (db/db mice [2]; 1 μg/animal, 43rd day) [times] | Number of Langerhans islets as % of the number in the negative sample-administered mice (db/db mice [2]; 1 μg/animal, 43rd day) [%] | Action of protecting pancreatic tissues, especially endocrine cells (db/db mice [2]; 1 μg/animal) | Pancreatic function protecting effect (db/db mice [2]; 1 μg/animal, 43rd day) | Change of numbers and maximum areas of Langerhans islets (db/db mice [2]; 1 μg/animal, 43rd day, versus negative sample)
1 | CC(C)C(C)CCC(C)C1CCC2C3=CCC4C(C)C(O)CCC4(C)C3CCC21C (stereo not shown) [Test sample 2, 4-methyl-ergost-7-en-3-ol] | 2.32 ± 1.52 | any significant pancreatic function protecting effect was not observed | 4.17 ± 2.23 | 210 | 178.7 ± 143.4 × 10^3 μm^2 | 64.1 ± 9.1 | 4 | 159 | had an action of protecting pancreatic tissues | – | –
2 | CCC(CCC(C)C1CCC2C3=CCC4C(C)C(O)CCC4(C)C3CCC21C)C(C)C (stereo not shown) [Test sample 3, 4-methyl-stigmast-7-en-3-ol] | 2.23 ± 0.68 | any significant pancreatic function protecting effect was not observed | 4.20 ± 1.86 | 211 | 122.6 ± 51.4 × 10^3 μm^2 | 60.4 ± 11.6 | 2.8 | 150 | had an action of protecting pancreatic tissues | – | –
3 | CC[C@H](CC[C@@H](C)[C@H]1CC[C@H]2[C@@H]3CC=C4C[C@@H](O)CC[C@]4(C)[C@H]3CC[C@]12C)C(C)C [Control sample, β-sitosterol, reference compound] | – | – | – | – | 69.1 ± 40.6 × 10^3 μm^2 | 42.3 ± 20.1 | – | – | – | any pancreatic function protecting effect was not observed | don't show any significant change
4 | CC(C)CCCC(C)C1CCC2C3=CCC4C(C)C(O)CCC4(C)C3CCC21C (stereo not shown) [Test sample 1, 4-methyl-cholest-7-en-3-ol] | 2.33 ± 1.23 | any significant pancreatic function protecting effect was not observed | 3.67 ± 0.80 | 184 | 160.0 ± 116.0 × 10^3 μm^2 | 75.7 ± 24.7 | 3.6 | 188 | had an action of protecting pancreatic tissues | – | –
